# Laboratory results as given in US12624004B2 (Fudan University, priority 2019, dated 2026).
# Counter-ions that a name gives are not always drawn. Like-named read-outs stand apart in the source and are kept apart here.
# Tests used:
# μ opioid receptor = molecular target: T1, μ opioid receptor (Homo sapiens, UniProt P35372); test: Competition binding assay on membranes of CHO cells expressing μ opioid receptor, [3H]-labeled ligand; settings: for Ki: read-out: μOR Ki
# T1 construct: expressed in transfected cells; host or cells: CHO cells (membranes)
# Procedure, shortened: (§1)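 CHO membranes (20–30 μg protein) incubated with [3H]-labeled ligand at 1–2 nM and test compounds, 30 min at 30° C; nonspecific binding with 1 μM corresponding ligand. Filtered on GF/C, washed with 50 mM Tris-HCl pH 7.4, scintillation-counted. IC50 converted to Ki by Ki=IC50/(1+[L]/Kd).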
# δ opioid receptor = molecular target: T2, δ opioid receptor (Homo sapiens, UniProt P41143); test: Competition binding assay on membranes of CHO cells expressing δ opioid receptor, [3H]-labeled ligand; settings: for Ki: read-out: δOR Ki
# T2 construct: expressed in transfected cells; host or cells: CHO cells (membranes)
# Procedure, shortened: as §1
# κ opioid receptor = molecular target: T3, κ opioid receptor (Homo sapiens, UniProt P41145); test: Competition binding assay on membranes of CHO cells expressing κ opioid receptor, [3H]-labeled ligand; settings: for Ki: read-out: κOR Ki
# T3 construct: expressed in transfected cells; host or cells: CHO cells (membranes)
# Procedure, shortened: as §1
# Female mice = test: In vivo hot plate method analgesia test; settings: intraperitoneal; for ED50: Mus musculus, ip, Table 3-2, hot plate; for Maximum percentage effective analgesia (% MPE): Table 5-2, hot plate 55° C.; for Maximum percentage effective analgesia (% MPE) / % MPE @ 10 mg/kg: 10 mg/kg dose; for % MPE @ 10 mg/kg: Table 3-2, hot plate 55° C.; for % MPE (5 mg/kg): Table 2-2, hot plate 55° C.
# Procedure, shortened: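 Female mice (~20 g) on a 55° C hot plate, hindpaw response latency as pain threshold (pre-screen 5–30 s, 60 s cut-off). Latencies at 15, 30, 60 and 120 min after intraperitoneal dosing. %MPE = (post−pre latency)/(60−pre)×100, ED50 derived from %MPE.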
# [1] = Table 3-1, 1 μM concentration of compounds, read-out: μOR Binding rate (%)
# [2] = 0.5 h, Table 3-1, 1 μM concentration of compounds, read-out: δOR Binding rate (%)
# [3] = 0.5 h, Table 3-1, 1 μM concentration of compounds, read-out: κOR Binding rate (%)
# [4] = 0.5 h, Table 2-1, 1 μM concentration of compound, read-out: δOR Binding rate (%)
# [5] = 0.5 h, Table 2-1, 1 μM concentration of compound, read-out: κOR Binding rate (%)
SMILES,Ki (μ opioid receptor; Table 5-1) [nM],Ki (δ opioid receptor; Table 5-1) [nM],Ki (κ opioid receptor; Table 5-1) [nM],Maximum percentage effective analgesia (% MPE) (Female mice) [%],Ki (μ opioid receptor; Table 2-1) [nM],% MPE (5 mg/kg) (Female mice; 5 mg/kg dose) [%],further results
"COc1cccc(C2(O)CCN(C(=O)Nc3ccccc3)CC2CN(C)C)c1.Cl (stereo not drawn) [FWBF1, 3-((Dimethylamino)methyl)-4-hydroxy-4-(3-methoxyphenyl)-N-phenylpiperidine-1-carboxamide hydrochloride]",,,,,,,Ki (μ opioid receptor; Table 3-1): 7.3 ± 0.5 nM; Ki (δ opioid receptor; Table 3-1): 849 ± 96.6 nM; Ki (κ opioid receptor; Table 3-1): 49.1 ± 6.9 nM; ED50 (Female mice): 2.75 mg/kg
"COc1cccc(C2(O)CCN(C(=O)C3(c4ccccc4)CCCC3)CC2CN(C)C)c1.Cl (stereo not drawn) [FWBE26, (3-((Dimethylamino)methyl)-4-hydroxy-4-(3-methoxyphenyl)piperidin-1-yl)(1-phenylcyclopentyl) methanone hydrochloride]",73.72 ± 0.32,1640 ± 1160,32.6 ± 4.35,52.96,,,
"COc1cccc(C2(O)CCN(C(=O)Cc3cc(C(F)(F)F)cc(C(F)(F)F)c3)CC2CN(C)C)c1.Cl (stereo not drawn) [FWBE1, 2-(3,5-Bis(trifluoromethyl)phenyl)-1-(3-((dimethylamino)methyl)-4-hydroxy-4-(3-methoxyphenyl)piperidin-1-yl)ethyl-1-one hydrochloride]",25.3 ± 4.9,4390 ± 351,4420 ± 182,17.8,,,
"COc1cccc(C2(O)CCN(C(=O)C3(c4ccccc4)CC3)CC2CN(C)C)c1.Cl (stereo not drawn) [FWBE24, (3-((Dimethylamino)methyl)-4-hydroxy-4-(3-methoxyphenyl)piperidin-1-yl)(1-phenylcyclopropyl)methanone hydrochloride]",67.15 ± 0.08,848 ± 529,33.9 ± 0.92,29.85,,,
"COc1cccc(C2(O)CCN(C(=O)Cc3cccc(C#N)c3)CC2CN(C)C)c1.Cl (stereo not drawn) [FWBE21, 3-(2-(3-((Dimethylamino)methyl)-4-hydroxy-4-(3-methoxyphenyl)piperidin-1-yl)-2-oxoethyl) benzonitrile hydrochloride]",,,,67.09,,,"inhibition at 1 µM (μ opioid receptor; 0.5 h, Table 5-1, 1 μM concentration of compound, read-out: μOR Combination rate (%)): 28.9 ± 17%; inhibition at 1 µM (δ opioid receptor; 0.5 h, Table 5-1, 1 μM concentration of compound, read-out: δOR Combination rate (%)): 25.4 ± 4.4%; inhibition at 1 µM (κ opioid receptor; 0.5 h, Table 5-1, 1 μM concentration of compound, read-out: κOR Combination rate (%)): 42.3 ± 3.3%"
"COc1cccc(C2(O)CCN(C(=O)N[C@@H](C)c3ccccc3)CC2CN(C)C)c1 (stereo partly drawn) [FWBF13, 3-((Dimethylamino)methyl)-4-hydroxy-4-(3-methoxyphenyl)-N-((S)-1-phenylethyl)piperidine-1-carboxamide hydrochloride]",,,,,,,inhibition at 1 µM (μ opioid receptor; [1]): 20.5 ± 5.5%; inhibition at 1 µM (δ opioid receptor; [2]): 0%; inhibition at 1 µM (κ opioid receptor; [3]): 4.1 ± 6.7%; % MPE @ 10 mg/kg (Female mice): 5.77%
"C=CCS(=O)(=O)N1CCC(O)(c2cccc(OC)c2)C(CN(C)C)C1.Cl (stereo not drawn) [FWBH21, 1-(Allylsulfonyl)-3-((dimethylamino)methyl)-4-(3-methoxyphenyl)piperidin-4-ol hydrochloride]",,,,,40.4 ± 4.99,18.80,inhibition at 1 µM (δ opioid receptor; [4]): 31.52 ± 0.21%; inhibition at 1 µM (κ opioid receptor; [5]): 17.1%
"COc1cccc(C2(O)CCN(C(=O)N(C)c3cccc(Cl)c3)CC2CN(C)C)c1.Cl (stereo not drawn) [FWBF3, N-(3-Chlorophenyl)-3-((dimethylamino)methyl)-4-hydroxy-4-(3-methoxyphenyl)-N-methylpiperidine-1-carboxamide hydrochloride]",,,,,,,inhibition at 1 µM (μ opioid receptor; [1]): 8.7 ± 3.7%; inhibition at 1 µM (δ opioid receptor; [2]): 0%; inhibition at 1 µM (κ opioid receptor; [3]): 14 ± 9.7%; % MPE @ 10 mg/kg (Female mice): 3.36%
"COc1cccc(C2(O)CCN(C(=O)Nc3cccc(F)c3)CC2CN(C)C)c1 (stereo not drawn) [FWBF7, 3-((Dimethylamino)methyl)-N-(3-fluorophenyl)-4-hydroxy-4-(3-methoxyphenyl)piperidine-1-carboxamide hydrochloride]",,,,,,,inhibition at 1 µM (μ opioid receptor; [1]): 36.7 ± 7.4%; inhibition at 1 µM (δ opioid receptor; [2]): 9.2 ± 7.8%; inhibition at 1 µM (κ opioid receptor; [3]): 0%; ED50 (Female mice): 4.12 mg/kg
"COc1cccc(C2(O)CCN(S(=O)(=O)Cc3ccc(C(F)(F)F)cc3)CC2CN(C)C)c1.Cl (stereo not drawn) [FWBH17, 3-((Dimethylamino)methyl)-4-(3-methoxyphenyl)-1-((4-(trifluoromethyl)benzyl)sulfonyl) piperidin-4-ol hydrochloride]",,,,,261 ± 35.3,48.32,inhibition at 1 µM (δ opioid receptor; [4]): 29.3 ± 1.66%; inhibition at 1 µM (κ opioid receptor; [5]): 25.4 ± 5.93%
"COc1cccc(C2(O)CCN(C(=O)Nc3ccc(F)c(Cl)c3)CC2CN(C)C)c1 (stereo not drawn) [FWBF9, N-(3-chloro-4-fluorophenyl)-3-((dimethylamino)methyl)-4-hydroxy-4-(3-methoxyphenyl) piperidine-1-carboxamide hydrochloride]",,,,,,,inhibition at 1 µM (μ opioid receptor; [1]): 25 ± 13.3%; inhibition at 1 µM (δ opioid receptor; [2]): 21.6 ± 13.4%; inhibition at 1 µM (κ opioid receptor; [3]): 7.1 ± 5%; % MPE @ 10 mg/kg (Female mice): 18.15%
"COc1cccc(C2(O)CCN(C(=O)Cc3cccc4ccccc34)CC2CN(C)C)c1.Cl (stereo not drawn) [FWBE16, 1-(3-((Dimethylamino)methyl)-4-hydroxy-4-(3-methoxyphenyl)piperidin-1-yl)-2-(naphthalen-1-yl)ethyl-1-one hydrochloride]",353 ± 4.5,2160 ± 72,1700 ± 379,78.72,,,
"COc1cccc(C2(O)CCN(S(C)(=O)=O)CC2CN(C)C)c1.Cl (stereo not drawn) [FWBH23, 3-((Dimethylamino)methyl)-4-(3-methoxyphenyl)-1-(methylsulfonyl)piperidin-4-ol hydrochloride]",,,,,192 ± 15,16.87,inhibition at 1 µM (δ opioid receptor; [4]): 16 ± 1.99%; inhibition at 1 µM (κ opioid receptor; [5]): 14.3 ± 3.33%
"CCCCS(=O)(=O)N1CCC(O)(c2cccc(OC)c2)C(CN(C)C)C1.Cl (stereo not drawn) [FWBH15, 1-(Butylsulfonyl)-3-((dimethylamino)methyl)-4-(3-methoxyphenyl)piperidin-4-ol hydrochloride]",,,,,34.9 ± 9.4,93.73,inhibition at 1 µM (δ opioid receptor; [4]): 27.2 ± 1.43%; inhibition at 1 µM (κ opioid receptor; [5]): 9.86 ± 2.67%
COc1cccc(C2(O)CCC(CS(=O)(=O)c3ccccc3)CC2CN(C)C)c1.Cl (stereo not drawn) [2-((Dimethylamino)methyl)-1-(3-methoxyphenyl)-4-((phenylsulfonyl)methyl)cyclohexane-1-ol hydrochloride],,,,,,,"inhibition at 10 µM (μ opioid receptor; Table 1-1, 10 μM concentration of compound, mean ± SD of three measurements, read-out: μOR Binding rate (%)): 86.9 ± 2%; inhibition at 10 µM (δ opioid receptor; 0.5 h, Table 1-1, 10 μM concentration of compound, read-out: δOR Binding rate (%)): 9.3%; inhibition at 10 µM (κ opioid receptor; 0.5 h, Table 1-1, 10 μM concentration of compound, read-out: κOR Binding rate (%)): 34.6 ± 5.1%; Maximum percentage effective analgesic (% MPE) (Female mice; Table 1-2, hot plate 55° C., 5 mg/kg dose): 22.4%"
"COc1cccc(C2(O)CCN(C(=O)Cn3ccc4ccccc43)CC2CN(C)C)c1.Cl (stereo not drawn) [FWBE14, 1-(3-((Dimethylamino)methyl)-4-hydroxy-4-(3-methoxyphenyl)piperidin-1-yl)-2-(1H-indol-1-yl)ethyl-1-one hydrochloride]",72.9 ± 0.1,1180 ± 220,4060 ± 382,54.23,,,
"COc1cccc(C2(O)CCN(C(=O)C(C)(C)c3ccccc3)CC2CN(C)C)c1.Cl (stereo not drawn) [FWBE23, 1-(3-((Dimethylamino)methyl)-4-hydroxy-4-(3-methoxyphenyl)piperidin-1-yl)-2-methyl-2-phenylpropan-1-one hydrochloride]",52.6 ± 3.83,688 ± 540,44.4 ± 0.96,33.72,,,
"COc1cccc(C2(O)CCN(S(=O)(=O)C[C@@]34CC[C@@H](CC3=O)C4(C)C)CC2CN(C)C)c1 (stereo partly drawn) [FWBH24, (1R,4S)-1-(((3-((Dimethylamino)methyl)-4-hydroxy-4-(3-methoxyphenyl)piperidin-1-yl)sulfonyl)methyl)-7,7-Dimethylbicyclo[2.2.1]heptan-2-one hydrochloride]",,,,,65.1 ± 5.36,54.81,inhibition at 1 µM (δ opioid receptor; [4]): 11.1 ± 1.3%; Ki (κ opioid receptor; Table 2-1): 433 ± 15.3 nM
"COc1cccc(C2(O)CCN(C(=O)Cc3cccc(Cl)c3)CC2CN(C)C)c1.Cl (stereo not drawn) [FWBE9, 2-(3-Chlorophenyl)-1-(3-((dimethylamino)methyl)-4-hydroxy-4-(3-methoxyphenyl)piperidin-1-yl)ethyl-1-one hydrochloride]",24.2,1640 ± 148,1010 ± 60.1,86.38,,,
"COc1cccc(C2(O)CCN(S(=O)(=O)Cc3ccc(F)cc3)CC2CN(C)C)c1.Cl (stereo not drawn) [FWBH12, 3-((Dimethylamino)methyl)-1-((4-fluorobenzyl)sulfonyl)-4-(3-methoxyphenyl)piperidin-4-ol hydrochloride]",,,,,39.2 ± 6.13,332.92,Ki (δ opioid receptor; Table 2-1): 1110 ± 28.5 nM; inhibition at 1 µM (κ opioid receptor; [5]): 45.9 ± 2.11%
"CCS(=O)(=O)N1CCC(O)(c2cccc(OC)c2)C(CN(C)C)C1.Cl (stereo not drawn) [FWBH18, 3-((Dimethylamino)methyl)-1-(ethylsulfonyl)-4-(3-methoxyphenyl)piperidin-4-ol hydrochloride]",,,,,180 ± 11.7,15.57,inhibition at 1 µM (δ opioid receptor; [4]): 24 ± 0.49%; inhibition at 1 µM (κ opioid receptor; [5]): 13.5 ± 2.22%
